Measured values as given in patent US9023806B2, “Peptide capable of altering tubulin polymerization and use thereof for inhibiting cell proliferation” (Universite d'Angers, priority 2004, dated 2015).
Entries after “also recorded” stand apart in the source; their conditions may differ.

Columns and labels:
tubulin [1] = assay: Peptide-on-membrane chip blot overlay with purified tubulin; assay type: binding, mice; conditions: purified tubulin overnight at 4° C., anti-βIII tubulin antibody
Excerpt: Peptide chips corresponding to the NFL, NFM and NFH neurofilament subunits were obtained according to Frank et al., 1992, with an ASP 222 automat spot robot. Each neurofilament sequence was divided into sequences of 15 amino acids.
These peptides overlap 12 amino acids of the next peptide. The overlapping peptides were synthesized on spots, like a chip, on a specially produced cellulose membrane (AIMS scientific product, GmbH, Braunschweig, Germany). The peptides are bound to the membrane with a polyethylene glycol bridge owing to their carboxy-terminal amino acid. The synthetic procedure followed is that of Frank et al., 1996.
Alternatively, the strips that were detected were cut out and analyzed by mass spectrometry. The peptide-on-membrane chip was incubated overnight at 4° C. with purified tubulin. After extensive washing with TBS (1×) the membranes were incubated with anti-βIII-tubulin antibodies in order to detect the amino acid sequences that interact with tubulin.
In order to identify the sequences responsible for the binding of tubulin to the neurofilaments, we use peptide-on-membrane chips, corresponding to the three neurofilament subunits (see experimental procedures). This method makes it possible to identify the binding domain involved in protein-protein interaction. […] The NFL subunit contains two tubulin binding sequences of 24 amino acids which we call NFL-TBS1 and NFL-TBS2 whereas NFM-TBS and NFH-TBS both contain 39 amino acids (FIG. 2A). […]

tubulin [2] = assay: Spectrophotometric (turbidimetry, OD 350 nm) analysis of microtubule polymerization; assay type: biochemical, mice; conditions: for influence on polymerization of microtubules (inhibition or activation): in vitro turbidimetry
Experimental: The alteration of tubulin polymerization is measured by measuring the turbidity (optical density at 350 nm) of a tubulin suspension. A decrease in turbidity of at least 1% is a sign of inhibition of tubulin polymerization.
The polymerization of tubulin from the supernatant S3 of a microtubule preparation was investigated by turbidimetry. Briefly, the supernatant S3 (3 mg/ml) was incubated at 37° C. in the presence of 1 mM of GTP in a Helios α thermospectronic spectrophotometer to monitor the variations in optical density at 350 nm.
To test this hypothesis, we conducted turbidimetry experiments with the various peptide sequences identified by blot overlay on the peptide chip. For this purpose, the supernatant S3 (containing free tubulin), obtained from a microtubule preparation, was polymerized at 37° C. in the presence of 1 mM GTP and several concentrations (3, 10, 30, and 100 μM) of tubulin binding peptide, which were added before polymerization (t=0).
As previously for the NF-TBS peptides, studies of the influence of the peptides of vimentin, cytokeratin and GFAP identified by peptide chip on the assembly of microtubules in vitro were carried out by the same technique as described previously in the Material and Method section (Spectrophotometric analysis of microtubule polymerization) in Example 1.

T98G cells [3] = assay: FACS (flow cytometry) cell cycle analysis; assay type: cell-based
Excerpt: (B-B′): Analysis by flow cytometry of control cells and cells treated with the peptides SEQ ID No. 6.
The microtubules constitute an important component of the achromatic spindle. To determine whether the presence of peptides SEQ ID No. 6 could affect cell division, the inventors usually carry out a FACS (Fluorescence Activated Cell Sorter) analysis to compare the distribution of the cycles of control cells and T98G cells treated with 10 μm of peptide SEQ ID No. 6.
In order to determine how a peptide that is an activator of microtubule polymerization affects cell division, a FACS analysis was carried out to compare the distribution of the cycles of untreated T98G cells (without peptide) or treated with 100 μm of peptide GFAP-TBS1 (SEQ ID No. 26), by the same protocol as that described in Example 2.

T98G cells [4] = assay: MTS cell proliferation test; assay type: cell-based
Excerpt: The effect of exposure of peptide SEQ ID No. 6 on cell proliferation was confirmed using MTS analysis (described in Cory A. H. et al., 1991, Cancer Commun. 3, 207-212, incorporated here by reference) in which the inventors observed fewer cells in the cultures treated with peptide SEQ ID No. 6 (FIG. 8C).

T98G cells [5] = assay: Peptide uptake and in-situ microtubule network by immunofluorescence; assay type: cell-based; conditions: 6 hours
Experimental: (A-A′-A″): The T98G cells are treated with the peptides SEQ ID No. 6 (10 μM) for 6 hours and the microtubules are then detected using an anti-tubulin antibody (red) and the biotinylated peptides SEQ ID No. 6 are detected using Alexa-labeled avidin (green).
To determine whether they could also modify the in-situ assembly of microtubules, T98G cells were incubated with 10 μm of biotinylated peptides SEQ ID No. 6. After incubation for 6 hours, more than 75% of the cells contain the peptide (FIG. 8 A, A′, A″) and are characterized by an unusual spherical shape.

| tubulin binding site detected on peptide chip (tubulin [1]) | Sequence | influence on polymerization of microtubules (inhibition or activation) (tubulin [2]) | other results |
| --- | --- | --- | --- |
| single binding sequence | AYRRVPTETRSSFSRVSGSPSSGFRSQSWSRGSPSTVSS (listed as Mus musculus) [NFM-TBS] |  |  |
| tubulin binding domains | FGYDPYFSTSYKRRYVETPRVHIS (listed as Mus musculus) [NFL-TBS1] |  |  |
| tubulin binding sites | GGAYVTRSSAVRLRSSVPGVRLLQ (listed as Mus musculus) [Vim-TBS2] | activate microtubule polymerization |  |
| tubulin binding sites | GSEVHTKKTVMIKTIETRDGE (listed as Mus musculus) [Des-TBS3] |  |  |
| tubulin binding sites | KSVSEGHLKRNIVVKTVEMRD (listed as Mus musculus) [GFAP-TBS3] | inhibitors of microtubule polymerization |  |
| tubulin binding sites | MERRRITSARRSYASETVVRGLGP (listed as Mus musculus) [GFAP-TBS1] | activate microtubule polymerization | cell cycle effect compared with control cells (T98G cells [3]; 100 μM, 36 hours): strong stopping in phase G1; also recorded: inhibits cell division |
| tubulin binding sites | MSIRVTQKSYKMSTSGPRAFSSRSFTSGPGARISSSSFSRVGSSSSSFRGSMGT (listed as Mus musculus) [Ker-TBS1] | activate microtubule polymerization |  |
| tubulin binding sites | MSQAYSSSQRVSSYRRTFGGAPGFSLG (listed as Mus musculus) [Des-TBS1] |  |  |
| tubulin binding sites | MSTRSVSSSSYRRMFGGS (listed as Mus musculus) [Vim-TBS1] |  |  |
| tubulin binding sites | QIKSLNNKFASFIDKVRFLEQ (listed as Mus musculus) [Ker-TBS2] |  |  |
| single binding sequence | RSAAGSSSGFHSWARTSVSSVSASPSRFRGAASSTDSLD (listed as Mus musculus) [NFH-TBS] |  |  |
| tubulin binding sites | SAGGSNTFSRTTKAVVVKKIETRDGKLVSE (listed as Mus musculus) [Ker-TBS3] |  |  |
| tubulin binding sites | SLPLVDTHSKRTLLIKTVETR (listed as Mus musculus) [Vim-TBS3] | inhibitors of microtubule polymerization |  |
| tubulin binding sites | SSPVFPRAGFGTKGSSSSMTSRVYQVSRTSGGAGGLGSLRSSRLGTTRAPSYGA (listed as Mus musculus) [Des-TBS2] |  |  |
| tubulin binding sites | VRGLGPSRQLGTMPRFSLSRMTPPLPARVDFSLAGA (listed as Mus musculus) [GFAP-TBS2] |  |  |
| tubulin binding domains | YSSYSAPVSSSLSVRRSYSSSSGS (listed as Mus musculus) [NFL-TBS2] | powerful effect; also recorded: inhibitors of microtubule polymerization | proliferation of T98G cells relative to untreated control (T98G cells [4]; 10 μM for 48 hours, listed as SEQ ID No. 6): greatly reduced; also recorded: fewer cells; degradation or elimination of peptide during culture (T98G cells [4]; inferred from comparison with medium replaced at 24 hours): little (if any) degradation or elimination; inhibition of the increase in number of cells (T98G cells [4]; medium containing peptide replaced at 24 hours, data not shown): clearly observed; inhibition of tubulin polymerization (tubulin [2]; 100 μM peptide, supernatant S3, 37° C., 1 mM GTP): 100%; cell cycle effect compared with control cells (T98G cells [3]; 10 μM, 48 hours): strong stopping in phase G1; cells in phase G1 of mitosis (T98G cells [3]; 10 μm peptide, culture for 48 hours (untreated 39%)): 61%; microtubule network in cells containing the peptide (T98G cells [5]; 10 μM, anti-tubulin antibody, listed as SEQ ID No. 6): lack a typical microtubule network; also recorded: disunited network of microtubules; cells containing the peptide (T98G cells [5]; biotinylated peptide, 10 μm): more than 75% |
